Legend:
ATR/ATRIP = ATR/ATRIP (Homo sapiens, UniProt Q13535); test: Inhibition of recombinant human full length ATR/ATRIP expressed in mammalian expression system using c-Myc-tagged p53 as substrate incubated for 15 mins followed by substrate addition measured after 25 to 35 mins by TR-FRET assay
[1] = target: T1, Serine/threonine-protein kinase ATR (Homo sapiens, UniProt Q13535); test: Inhibition of ATR in human U2OS cells harboring ER-LBD fused TopBPI activation domain (978 to 1286 residues) assessed as reduction in 4-OHT-mediated nuclear translocation of TopBPI fragment by measuring gammaH2AX level after 24 hrs by Alexa Fluor 488 staining based fluorescence assay; format: cell-based
T1 sequence (Q13535 whole entry, the tested form may be a part): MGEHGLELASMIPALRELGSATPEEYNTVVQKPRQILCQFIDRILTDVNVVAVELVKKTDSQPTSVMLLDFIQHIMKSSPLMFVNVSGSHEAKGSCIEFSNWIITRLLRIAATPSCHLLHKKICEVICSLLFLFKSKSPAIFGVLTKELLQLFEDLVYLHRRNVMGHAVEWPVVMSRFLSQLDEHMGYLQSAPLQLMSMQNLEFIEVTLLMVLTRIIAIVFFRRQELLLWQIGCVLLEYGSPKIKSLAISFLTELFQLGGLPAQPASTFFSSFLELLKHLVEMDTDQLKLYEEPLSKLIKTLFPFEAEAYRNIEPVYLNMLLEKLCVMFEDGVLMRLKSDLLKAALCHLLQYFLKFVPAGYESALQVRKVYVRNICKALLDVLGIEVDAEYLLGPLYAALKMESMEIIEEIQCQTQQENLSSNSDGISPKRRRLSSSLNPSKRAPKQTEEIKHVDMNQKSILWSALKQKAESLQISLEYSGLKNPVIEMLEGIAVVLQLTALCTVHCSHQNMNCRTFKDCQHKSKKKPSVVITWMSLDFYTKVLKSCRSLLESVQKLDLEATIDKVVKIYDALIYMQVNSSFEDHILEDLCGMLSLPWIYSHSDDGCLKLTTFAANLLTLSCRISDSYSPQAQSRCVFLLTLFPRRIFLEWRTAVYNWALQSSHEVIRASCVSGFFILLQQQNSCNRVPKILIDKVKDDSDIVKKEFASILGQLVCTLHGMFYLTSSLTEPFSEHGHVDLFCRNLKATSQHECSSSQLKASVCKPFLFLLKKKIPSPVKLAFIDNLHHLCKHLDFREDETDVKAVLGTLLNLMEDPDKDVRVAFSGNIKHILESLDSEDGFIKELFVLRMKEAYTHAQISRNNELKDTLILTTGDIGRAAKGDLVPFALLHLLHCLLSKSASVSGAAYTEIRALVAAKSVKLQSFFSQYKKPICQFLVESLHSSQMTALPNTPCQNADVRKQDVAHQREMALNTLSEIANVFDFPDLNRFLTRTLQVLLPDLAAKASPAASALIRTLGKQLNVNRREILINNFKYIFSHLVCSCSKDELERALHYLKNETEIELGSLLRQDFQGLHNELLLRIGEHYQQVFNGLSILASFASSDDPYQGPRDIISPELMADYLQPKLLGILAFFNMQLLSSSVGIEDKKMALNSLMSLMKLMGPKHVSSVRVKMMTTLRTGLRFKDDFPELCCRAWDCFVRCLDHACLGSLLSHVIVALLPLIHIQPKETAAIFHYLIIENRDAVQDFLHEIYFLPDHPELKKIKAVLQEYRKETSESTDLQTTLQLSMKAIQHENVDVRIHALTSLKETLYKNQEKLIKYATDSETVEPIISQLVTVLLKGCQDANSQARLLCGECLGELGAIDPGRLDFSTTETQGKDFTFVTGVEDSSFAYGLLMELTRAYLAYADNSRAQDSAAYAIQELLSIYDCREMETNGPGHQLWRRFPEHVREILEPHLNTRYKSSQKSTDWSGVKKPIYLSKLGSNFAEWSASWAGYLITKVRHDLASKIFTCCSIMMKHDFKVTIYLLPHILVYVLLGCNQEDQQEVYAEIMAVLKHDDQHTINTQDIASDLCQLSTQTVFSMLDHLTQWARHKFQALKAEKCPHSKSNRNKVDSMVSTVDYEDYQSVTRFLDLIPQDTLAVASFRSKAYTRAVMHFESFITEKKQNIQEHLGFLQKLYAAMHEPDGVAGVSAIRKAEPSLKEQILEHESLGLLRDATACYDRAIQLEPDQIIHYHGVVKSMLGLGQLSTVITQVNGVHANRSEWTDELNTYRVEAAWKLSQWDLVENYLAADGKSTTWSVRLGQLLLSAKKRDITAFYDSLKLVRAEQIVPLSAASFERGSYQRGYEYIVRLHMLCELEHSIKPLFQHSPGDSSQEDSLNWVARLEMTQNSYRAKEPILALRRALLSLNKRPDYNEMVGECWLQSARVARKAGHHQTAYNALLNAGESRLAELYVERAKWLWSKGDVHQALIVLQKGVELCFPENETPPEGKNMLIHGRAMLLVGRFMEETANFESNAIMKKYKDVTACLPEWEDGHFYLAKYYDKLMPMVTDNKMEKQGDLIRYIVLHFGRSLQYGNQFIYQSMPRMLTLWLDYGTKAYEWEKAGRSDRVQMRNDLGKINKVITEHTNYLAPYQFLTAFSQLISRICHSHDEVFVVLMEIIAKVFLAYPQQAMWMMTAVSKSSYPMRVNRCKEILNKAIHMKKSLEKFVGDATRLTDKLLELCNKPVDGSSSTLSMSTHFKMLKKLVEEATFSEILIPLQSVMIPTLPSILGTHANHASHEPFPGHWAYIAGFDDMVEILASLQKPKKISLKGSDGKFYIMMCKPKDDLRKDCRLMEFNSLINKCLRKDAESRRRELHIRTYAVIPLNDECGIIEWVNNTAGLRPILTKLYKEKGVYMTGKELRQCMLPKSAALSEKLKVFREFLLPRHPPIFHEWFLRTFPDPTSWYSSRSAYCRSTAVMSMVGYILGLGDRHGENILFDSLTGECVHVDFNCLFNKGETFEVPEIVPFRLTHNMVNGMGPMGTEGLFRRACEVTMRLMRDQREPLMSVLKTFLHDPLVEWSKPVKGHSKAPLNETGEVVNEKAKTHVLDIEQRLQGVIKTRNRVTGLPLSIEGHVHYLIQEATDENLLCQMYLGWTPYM

[2] = target: T1, Serine/threonine-protein kinase ATR; test: Inhibition of ATR in human HT29 cells assessed as reduction in Chk1 phosphorylation at Ser345 residues after 4 hrs by Alexa Fluor 488 staining based fluorescence assay; format: cell-based

ATR/ATRIP, sequence (Q13535 whole entry, the tested form may be a part): as above
ATR/ATRIP, sequence (Q8WXE1 whole entry, further chain, the tested form may be a part): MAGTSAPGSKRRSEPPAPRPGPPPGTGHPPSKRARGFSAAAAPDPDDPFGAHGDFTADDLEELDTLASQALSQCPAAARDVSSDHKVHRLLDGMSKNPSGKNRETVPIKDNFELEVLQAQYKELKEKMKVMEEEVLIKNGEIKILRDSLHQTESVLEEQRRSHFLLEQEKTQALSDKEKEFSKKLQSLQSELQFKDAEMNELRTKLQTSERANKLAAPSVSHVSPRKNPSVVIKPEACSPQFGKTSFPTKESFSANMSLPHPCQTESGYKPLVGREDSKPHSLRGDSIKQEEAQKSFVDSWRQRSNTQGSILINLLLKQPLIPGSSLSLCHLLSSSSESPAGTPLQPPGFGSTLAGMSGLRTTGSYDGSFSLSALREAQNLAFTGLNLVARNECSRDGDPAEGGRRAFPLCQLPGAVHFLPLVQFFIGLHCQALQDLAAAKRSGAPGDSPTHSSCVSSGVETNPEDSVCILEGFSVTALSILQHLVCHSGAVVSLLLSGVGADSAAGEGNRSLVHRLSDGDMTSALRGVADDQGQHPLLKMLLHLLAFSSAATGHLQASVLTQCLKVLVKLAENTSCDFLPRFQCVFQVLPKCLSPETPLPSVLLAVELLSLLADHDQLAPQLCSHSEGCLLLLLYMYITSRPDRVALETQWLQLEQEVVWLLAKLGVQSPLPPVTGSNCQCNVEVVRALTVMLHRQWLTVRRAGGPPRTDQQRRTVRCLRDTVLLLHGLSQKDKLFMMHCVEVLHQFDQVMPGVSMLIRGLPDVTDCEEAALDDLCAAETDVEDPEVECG

Row | IC50 (ATR/ATRIP) [nM] | IC50 [1] [nM] | IC50 [2] [nM] | Compound
1 | 10 to 100 |  |  | C[C@@H]1COC[C@H]2COc3c(nc(N(C)c4ccn[nH]4)nc3C(C)(C)S(C)(=O)=O)N21
2 | < 1 | < 10 | < 10 | CNc1nc2ccccc2n1-c1nc2c(c(C(C)(C)S(C)(=O)=O)n1)OC[C@@H]1COC[C@@H](C)N21
3 | < 1 | 10 to 100 | 10 to 100 | CNc1cnc2[nH]ccc2c1-c1nc2c(c(C(C)(C)O)n1)OC[C@@H]1COC[C@@H](C)N21
4 | 10 to 100 | 100 to 1000 |  | CNc1nccn1-c1nc2c(c(C(C)(C)S(C)(=O)=O)n1)OC[C@@H]1COC[C@@H](C)N21
5 | 1 to 10 |  | 10 to 100 | CCNc1cnc2[nH]ccc2c1-c1nc2c(c(C(C)(C)S(C)(=O)=O)n1)OC[C@@H]1COC[C@@H](C)N21
6 | < 1 | 10 to 100 | < 10 | CNc1cnc2[nH]ccc2c1-c1nc2c(c(C(C)(C)S(C)(=O)=O)n1)OC[C@@H]1COC[C@@H](C)N21

Reference: ChEMBL document CHEMBL4251726, “ATR Inhibitors as Potential Treatment for Cancers” (ACS Med Chem Lett, 2018)
